# In patent US20020197244A1, “Compositions and methods for regulating phagocytosis and ICAM-1 expression” (priority 1998, published 2002):
# Key:
# ICAM-1 = ICAM-1 immunofluorescent staining of keratinocytes; format: cell-based, human; details: vs untreated keratinocytes; FIG. 6A
# Procedure: Intercellular adhesion molecule-1 (ICAM-1) is an inducible cell-surface glycoprotein that is implicated in cell-cell adhesion, cell membrane raffling and phagocytosis. Therefore, the effect of PAR-2 modulation on ICAM-1 was tested. Keratinocytes were grown in chamber slides and treated with SLIGRL, Compound I and STI as described, followed by immunofluorescent staining for ICAM-1 using standard procedures. Normal donkey serum, (used at 1:5 dilution), was obtained from Jackson Immunoresearch Laboratory (Westgrove, Pa.). A polyclonal goat anti-human ICAM-1 antibody, (used at 1:200 dilution), was obtained from R&D Systems (Minneapolis, Minn.), and FITC-conjugated donkey anti-goat antibody was obtained from Jackson Immunoresearch Laboratory. […] In untreated keratinocytes, ICAM-1 was localized mainly to the plasma membrane, with some staining at the nuclear membrane.
# [1] = tested on: macrophage cell line IC-21; assay: Fluorescent microsphere ingestion by macrophages; format: cell-based; details: IC-21 macrophages
# Procedure: (§1) In this example, human primary keratinocytes or the human keratinocyte cell line HaCaT were used as in vitro model systems to study the effect of PAR-2 regulators on keratinocyte phagocytosis. The human primary keratinocytes used are commercially available from Clonetics (San Diego, Calif.). Cells were plated on chamber slides, at 2 chambers/slide and 60,000 cells/chamber. Cells were treated once daily, for two or three days, with Compound I (1μM), SLIGRL (10μM), or vehicle (Phosphate-buffered saline, (“PBS”) from Gibco-BRL (Gaithersburg, Md.). After two or three days of exposure to the test compounds, cells were exposed to Nile-red or FITC fluorescent microspheres, 1 μm in diameter, 50 microspheres/cell, for two hours at 37° C. Microspheres were from Molecular Probes (Eugene, Oreg.), and were processed according to manufacturer's instructions. Following that treatment, cells were incubated with 15% Fetal Bovine Serum (“FBS”, from Gibco-BRL), for 15 minutes at 37° C. and rinsed with PBS. At that time, chambers were separated from the slides, and the slides were covered with glycerol and coverslips. Fluorescent microscopy was performed using a Zeiss Axiovert 35 or a Nikon Optiphot-2 microscope.
# The experiment described in Example 1 was repeated using the macrophage cell line IC-21 (obtained from the ATCC), which shares phagocytic characteristics with peritoneal macrophages. As shown for keratinocytes and fibroblasts, Compound I and STI reduced, and SLIGRL increased, the number of microspheres ingested by these macrophages which are “professional phagocytic” cells.
# Keratinocytes [2] = assay: F-actin staining of keratinocytes; format: cell-based; details: Compound I 10 nM, STI 0.1 mg/ml, SLIGRL 5 μM; FIG. 9
# Procedure: Therefore, the organization of F-actin filaments following PAR-2 modulation was tested. Keratinocytes were treated with Compound I (10 nM), STI (0.1 mg/ml), or with SLIGRL (5 μM) as described in Example 1, and stained for F-actin using standard techniques.
# Human keratinocytes = assay: Keratinocyte microsphere phagocytosis dose-response, image analysis; format: cell-based; details: two days; for phagocytosis with increasing concentrations: SLIGRL 0, 5 and 10M, Compound I 1 pM to 1 μM, STI 0.01 to 1 mg/ml; for % Ingestion: untreated = 100 +/− 12
# Procedure: as §1
# Dose-response Relationship Between PAR-2 Signaling and Keratinocyte Phagocytosis Human keratinocytes were treated with increasing concentrations of SLIGRL, the PAR-2 peptide activator and agonist, at 0, 5 and 10M for two days in the same manner as set forth in Example 1. […] Human keratinocytes were also treated with increasing concentrations of Compound I and STI for two days.
# Image analysis of the fluorescent beads inside the keratinocytes was used as an alternative way to quantify the phagocytic effect in this system. Empire Imagins Database Version 1.1 was used on a Gateway 2000 P5-100 computer (Media Cybernetics, Silver Springs, Md.) for capturing images. Image Pro Plus version 1.3 was used for measurements, and Microsoft Excel version 5.0 was used for data processing. Data obtained from this keratinocyte-microsphere system were in full agreement with data from the macrophage/E. coli system.
# [3] = tested on: macrophage cell line IC-21; assay: Vybrant Phagocytosis Assay Kit, fluorescein-labeled E. coli K-12 particles; format: cell-based; details: for % effect (ingestion): treated overnight, 100 nM Compound I, 5 μM SLIGRL, 0.1 mg/ml STI, untreated control = 100, one experiment of three; for phagocytosis, dose-response: STI 0, 0.01, 0.1, 1 mg/ml, Compound I 0.01, 0.1, 1 nM, FIG. 4A, 4B
# Procedure: To better quantify the level of phagocytosis, the “Vybrant™ Phagocytosis Assay Kit” of Molecular Probes (Eugene, Oreg.) was used, following manufacturer's instructions, with modification of cell culture conditions for the IC-21 cell line. This kit uses Fluorescein-labeled E. coli K-12 particles, and is designed for quantifying the effects of drugs or other environmental factors on phagocytic functions. Macrophages were treated overnight with 100 nM of Compound I, 5 μM of SLIGRL, or 0.1 mg/ml of STI, all dissolved in PBS. The ability of the treated macrophages to ingest the fluorescent E. coli, as measured by this kit, is documented in Table 1. This experiment was repeated three times.
# In order to verify the quantitative nature of the macrophage-phagocytosis assay, a dose-response experiment was performed. Macrophages were treated with 0, 0.01, 0.1 and 1 mg/ml of STI, and the experiment was performed as described in Example 3. […] Each experiment was repeated three times.
# Keratinocytes [4] = assay: Melanin/melanosome uptake by keratinocytes, Fontana-Mason staining; format: cell-based; details: treated two days, melanin two hours; FIG. 5A; same results with isolated melanosomes (FIG. 5B)
# Procedure: This example tests the ability of keratinocytes to acquire melanin or melanosomes in vitro, and thus function as a simplified system for melanosome uptake in the skin. Keratinocytes were plated in glass chamber-slides as described earlier, and were treated for two days with SLIGRL, Compound I or STI. At that time, melanin powder (from Sigma, St. Louis, Mo.) was mixed in sterile PBS at 10 μg/ml, and was added to the culture media (1:10 dilution) for two hours. Cells were then washed with PBS and stained with Fontana-Mason (“F&M”) staining. F&M stains silver nitrate-reducing molecules, thereby permitting the identification of melanins inside the keratinocytes. […] This system, therefore, can mimic melanosome transfer and melanin distribution in vivo, as skin keratinocytes use melanin as an UV-protective cap over their nuclei. […] The same results were also observed using melanosomes isolated as described in S. Orlow, et al., J.I.D. 100:55-64 (1993) (FIG. 5B).
# [5] = tested on: human keratinocyte cell line HaCaT; assay: Fluorescent microsphere ingestion by keratinocyte cell line HaCaT; format: cell-based; details: FIG. 2
# Procedure: In order to study the role of the PAR-2 pathway in phagocytosis, several in vitro model systems were used. One system used contained primary human keratinocytes or a human keratinocyte cell line. In this and a number of following examples, cells were treated with test compounds for different amounts of time (from one hour to three days), and samples were then incubated with fluorescent microspheres for two hours. The beads ingested by the cells were photographed using fluorescence microscopy.
# as §1
# The same results were also obtained when the human keratinocyte cell line HaCaT was used instead of the primary keratinocytes (see FIG. 2). SLIGRL, STI and Compound I were tested for their effect on keratinocyte phagocytosis. In these experiments, the extracellular accumulation of microspheres could be washed off. […]
Molecule,intracellular localization of ICAM-1 (ICAM-1),number of microspheres ingested [1],actin filaments organization (Keratinocytes [2]),phagocytosis with increasing concentrations (Human keratinocytes),% effect (ingestion) [3],uptake (internalization) of melanin by keratinocytes (Keratinocytes [4]),microsphere ingestion [5],"phagocytosis, dose-response [3]",% Ingestion (Human keratinocytes; STI 0.01%),% Ingestion (Human keratinocytes; STI 0.1%),% Ingestion (Human keratinocytes; STI 1%)
"CN[C@H](Cc1ccccc1)C(=O)N1CCCC1C(=O)N[C@@H](CCCNC(=N)N)C(=O)c1nc2ccccc2s1 (stereo partly drawn) [Compound I, (S)-N-Methyl-D-phenylalanyl-N-[4-[(aminoiminomethyl)amino]-1-(2-benzothiazolylcarbonyl)butyl]-L-prolinamide]","less staining was observed at the cytoplasmic membrane, and more at the nuclear membrane",reduced,reduced the ordered organization of the cell cortex,dose-dependent decrease in phagocytosis,89.9 +/− 13.6%,dramatically reduce the uptake of melanin,reduce microsphere ingestion,,,,
SLIGRL [reference compound],"increased and more diffused cytoplasmic membrane staining, and reduced nuclear membrane staining",increased,induced actin polymerization around the cell cortex,increased phagocytosis,331.6 +/− 5.9%,dramatically increases the internalization of melanin,increased microsphere ingestion,increase in phagocytosis,,,
"STI: Soybean trypsin inhibitor, a serine protease inhibitor capable of affecting the PAR-2 pathway (protein, UniProt P01070 25-205, looked up) Trypsin inhibitor A: DFVLDNEGNPLENGGTYYILSDITAFGGIRAAPTGNERCPLTVVQSRNELDKGIGTIISSPYRIRFIAEGHPLSLKFDSFAVIMLCVGIPTEWSVVEDLPEGPAVKIGENKDAMDGWFRLERVSDDEFNNYKLVFCPQQAEDDKCGDIGISIDHDDGTRRLVVSKNKPLVVQFQKLDKESL","less staining was observed at the cytoplasmic membrane, and more at the nuclear membrane",reduced,reduced the ordered organization of the cell cortex,dose-dependent decrease in phagocytosis,56.06 +/− 12.4%,dramatically reduce the uptake of melanin,reduce microsphere ingestion,dose-response of decreased phagocytosis,76 +/− 15%,55 +/− 14%,41.6 +/− 11%
